Data on one compound can be found in patent publication US20230039836A1, “AROMATIC SULPHONAMIDES DERIVATIVES THAT INHIBITS PDI A3, THEIR SYNTHESIS AND USE” (Uniwersytet Jagiellonski, priority 2020, published 2023).

One may read the IC50 as the concentration at which inhibition is half-maximal. Low readings indicate greater potency, high ones weaker potency.

In assay [1] the target is T1, PDI A1 (Homo sapiens, UniProt P07237).
T1 construct: purchased Mybiosource; host or cells: E. coli
The experiment in a line: Insulin turbidometric assay, inhibition of PDI A1. Format: biochemical. Conditions: insulin reduction, turbidity at 650 nm, 60 min incubation at 37° C.; read-out: Inhibition of PDI A1 (EC 50). The procedure, abridged: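 E. coli-expressed recombinant PDIA1 (10 ug/ml) preincubated with compound 60 min at 37 °C in phosphate buffer pH 7.6, 1 mM EDTA, DTT. Reaction started with insulin (0.15 mM final) and DTT (0.174 mM final). Insulin-reduction turbidity recorded at 650 nm over 120 s against PDI-free reference.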

Assay [2] deals with HT-29. The experiment in a line: Cell cycle and cell death analysis. Format: cell-based, human. The procedure:
Cell cycle and cell death analysis has been performed as previously described (Milczarek M et al. , 2015). Compounds were tested 5 times independently. Obtained results were analyzed using BD FACSDiva 6.2 software.

Assay [3] has as its system HT-29. The experiment in a line: Sulforhodamine B antiproliferative assay, 72 h. Format: cell-based, human. Conditions: Homo sapiens, HT-29; normal (21% of oxygen), 72-hour exposition. In outline:
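Cells at 10^5 cells/mL were given four concentrations within 0.1-100 ug/mL for 72 h at 37° C., under 21% O2 (normal) or <1% O2 (hypoxia). Growth read by sulforhodamine B staining after TCA fixation (A540); MTT (A570) was used for estradiol (200 nM) runs. Mean IC50 ± SD from ≥3 independent triplicate experiments.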

Converted amounts (≈) assume the structure as drawn.

T1 sequence (P07237 18-508, species assumed): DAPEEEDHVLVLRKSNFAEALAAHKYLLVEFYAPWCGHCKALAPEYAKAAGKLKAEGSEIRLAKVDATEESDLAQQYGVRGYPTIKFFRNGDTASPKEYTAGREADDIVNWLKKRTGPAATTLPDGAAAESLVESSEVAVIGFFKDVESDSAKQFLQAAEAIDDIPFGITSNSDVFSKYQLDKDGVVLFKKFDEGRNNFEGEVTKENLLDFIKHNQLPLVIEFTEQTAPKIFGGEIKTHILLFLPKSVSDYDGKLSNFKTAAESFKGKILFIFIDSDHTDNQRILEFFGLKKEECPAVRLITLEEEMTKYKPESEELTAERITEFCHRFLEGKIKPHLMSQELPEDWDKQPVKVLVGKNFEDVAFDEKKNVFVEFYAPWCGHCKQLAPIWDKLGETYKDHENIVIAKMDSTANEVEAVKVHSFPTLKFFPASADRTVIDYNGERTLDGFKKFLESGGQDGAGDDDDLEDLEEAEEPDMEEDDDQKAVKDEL

With `COC(=O)C1CN1S(=O)(=O)c1ccccc1` (stereo not shown) [Compound C-3251, Methyl 1-(benzenesulfonyl)aziridine-2-carboxylate], the EC50 in assay [1] amounted to 6 µM. The “Cell cycle distribution, HT-29” value in assay [2] (FIG. 1C) was “decreased HT-29 cells in G0/G1 and increased in G2/M phase”. Also, the “Percentage of death cells, HT-29” value in assay [2] (FIG. 1D) is listed as “increased significantly the percentage of death HT-29 cells”. It took 30.2 ± 4.7 µg/mL (≈ 125 µM) to reach half-maximal inhibition in assay [3] (IC50).
